Read-outs that look alike come from different tables or passages of the source.
Legend:
Proteus vulgaris = test: Minimum inhibitory concentration against bacteria, strain A; format: cell-based; details: 24 hours at 30° C.; tested at 100 and 300 mg/liter
Procedure: (§1) Overnight cultures, grown in Caso peptone bouillon (Merck) of the various strains of bacteria: (A) Proteus vulgaris, (B) Pseudomonas aeruginosa, (C) Enterobacter aerogenes, (D) Serratia marcencens, (E) Alcaligenes denitrificans and (F) Bacillus subtilis are each diluted in a ratio of 1/1000 in saline solution. Sufficient of the suspensions is put into Caso peptone bouillon to dilute the bacteria again in the ratio of 1/1000. Each of the compounds listed in Table 1 is then added in amounts of 100 and 300 mg/liter. After being incubated for 24 hours at 30° C. in a shaking waterbath, the turbidity of the samples is evaluated.

Pseudomonas aeruginosa = test: Minimum inhibitory concentration against bacteria, strain B; format: cell-based; details: 24 hours at 30° C.; tested at 100 and 300 mg/liter
Procedure: as §1

Enterobacter aerogenes = test: Minimum inhibitory concentration against bacteria, strain C; format: cell-based; details: 24 hours at 30° C.; tested at 100 and 300 mg/liter
Procedure: as §1

Serratia marcencens = test: Minimum inhibitory concentration against bacteria, strain D; format: cell-based; details: 24 hours at 30° C.; tested at 100 and 300 mg/liter
Procedure: as §1

[1] = test system: Alcaligenes denitrificans; test: Minimum inhibitory concentration against bacteria, strain E; format: cell-based; details: 24 hours at 30° C.; tested at 100 and 300 mg/liter
Procedure: as §1

Bacillus subtilis = test: Minimum inhibitory concentration against bacteria, strain F; format: cell-based; details: 24 hours at 30° C.; tested at 100 and 300 mg/liter
Procedure: as §1

[2] = test system: mixed culture of bacteria; format: cell-based; design: key: +: growth, no destruction; (+): growth less than that of control (>10 colonies), slight destruction; (-): slight growth (1-10 colonies); -: no growth, destruction
Aspergillus niger = test: Minimum inhibitory concentration against fungi, agar incorporation test, strain K; format: cell-based; details: malt extract/agar
Procedure: (§2) The invention is carried out using the known agar incorporation test in the following fungi:
(§3) in a malt extract/agar (Merck). Inhibition is effected by adding sufficient of each of the various compounds to give final concentrations in the agar of 2, 5, 10, 50 and 100 mg/liter. The concentrations (mg/liters) required to inhibit the growth of the fungi (starting from traces of fungi added dropwise) are illustrated in Table 3.

Aspergillus phoenicis = test: Minimum inhibitory concentration against fungi, agar incorporation test, strain L; format: cell-based; details: malt extract/agar
Procedure: as §2
(L) Aspergillus phoenicis
as §3

Penicillium funiculosum = test: Minimum inhibitory concentration against fungi, agar incorporation test, strain M; format: cell-based; details: malt extract/agar
Procedure: as §2
(M) Penicillium funiculosum
as §3

Alternaria alternata = test: Minimum inhibitory concentration against fungi, agar incorporation test, strain N; format: cell-based; details: malt extract/agar
Procedure: as §2, §3

[3] = test system: Cladosporium cladosporioides; test: Minimum inhibitory concentration against fungi, agar incorporation test, strain O; format: cell-based; details: malt extract/agar
Procedure: as §2
(O) Cladosporium cladosporioides
as §3

Candida albicans = test: Minimum inhibitory concentration against fungi, agar incorporation test, strain P; format: cell-based; details: malt extract/agar
Procedure: as §2, §3

Endomyces geotrichum = test: Minimum inhibitory concentration against fungi, agar incorporation test, strain Q; format: cell-based; details: malt extract/agar
Procedure: as §2, §3

Aureobasidium pullulans = test: Minimum inhibitory concentration against fungi, agar incorporation test, strain R; format: cell-based; details: malt extract/agar
Procedure: as §2
(R) Aureobasidium pullulans
as §3

Chaetomium globosum = test: Minimum inhibitory concentration against fungi, agar incorporation test, strain S; format: cell-based; details: malt extract/agar
Procedure: as §2, §3

Chlorella vulgaris = test: Action against algae: Chlorella vulgaris; format: cell-based; design: key: --: no growth on the agar, 3 ppm have destroyed the algae in 6 hours; details: 3 mg/liter; for Growth on the agar (algae-destroying action): 6 hours exposure, 14 days incubation; for Growth in the medium (growth inhibition): 14 days
Procedure: Cultures of Chlorella vulgaris which had been grown for 14 days in algae nutrient media are diluted in the ratio 1/200 in the algae nutrient medium. Each of the compounds listed in Table 1 is then added in such an amount as to give a final concentration of 3 mg/liter. After incubating for 6 hours, 10 μl of each culture are withdrawn and added dropwise to algae/agar in order to determine the destructive action. After the cultures have incubated for 14 days under illumination (14 hours of light and 10 hours of darkness, alternately), the growth in the algae medium (determination of growth inhibition) and on the algae/agar (determination of algae-destroying action) is assessed visually.

[4] = test system: Enteromorpha intestinalis; test: Action against Enteromorpha intestinalis: destruction (minimum killing concentration); format: in vivo; details: 4 hours in seawater, then 6-8 weeks in fresh seawater
Procedure: (§4) The action against the green alga Enteromorpha, which is the most important in seawter fouling, is investigated in sterile-filtered seawater containing an Erd-Schreiber solution. This solution is composed of a nutrient extract, phosphate and nitrate. The incubation of Enteromorpha intestinalis is carried out in a light thermostat at 18° C. under an alternation of 14 hours of light and 10 hours of darkness.
The algae which have been cultured in this way are exposed to the products under investigation for a short time (4 hours) in seawater. The minimum killing concentration (MKC) is determined by taking the algae out of the seawater containing a specific quantity of algicide, after the treatment time in the latter, washing the algae and investigating growth or mortality after incubation in fresh seawater for a further period of 6-8 weeks.
The minimum killing concentration (MKC) indicates the amount of substance required to cause such damage to the algae within a specific time that they can no longer recover in fresh seawater and die out.

[5] = test system: Enteromorpha intestinalis; test: Action against Enteromorpha intestinalis: inhibitory concentration (MIC); format: in vivo; details: seawater containing biocide for entire test; concentration tested 0.5 mg/liter
Procedure: as §4
For determining the inhibitory concentration (MIC), the algae are kept in seawater containing biocide for the entire duration of the test (concentration tested: 0.5 mg/liter).

Artemia salina = test: Action against Artemia salina nauplii; format: in vivo; design: key: 0: no change; 1: slight change; 1-2: animals are attacked; 2: animals are strongly attacked; 2-3: animals are nearly all dead; 3: animals are all dead
Procedure: The eggs, which are available commercially, are caused to hatch by vigorous aeration. When 2-3 days old, the nauplii are exposed to the products at various concentrations (concentrations tested: 2.5; 1; 0.5 and 0.25 mg/liter) in synthetic seawater, and are observed over a prolonged period of time.

[6] = 5 mg/l, culture diluted 1/1000 in Tyrode
[7] = 5 mg/l, culture diluted 1/10000 in Tyrode
[8] = 10 mg/l, culture diluted 1/1000 in Tyrode
[9] = 10 mg/l, culture diluted 1/10000 in Tyrode
[10] = 30 mg/l, culture diluted 1/1000 in Tyrode
[11] = 30 mg/l, culture diluted 1/10000 in Tyrode
[12] = 60 mg/l, culture diluted 1/1000 in Tyrode
[13] = 60 mg/l, culture diluted 1/10000 in Tyrode
[14] = 100 mg/l, culture diluted 1/1000 in Tyrode
[15] = 100 mg/l, culture diluted 1/10000 in Tyrode

Structure (SMILES): CCCCCCCCCC[N+](C)(C)CCCCCCCCCC.CCC[CH2][Sn-]([Cl])([Cl])([CH2]CCC)[CH2]CCC [Example 4, dimethyl-didecylammonium tributyldichlorostannate-(IV)]
- MIC against bacteria, strain A (Proteus vulgaris): 100 µg/mL
- MIC against bacteria, strain B (Pseudomonas aeruginosa): 100 µg/mL
- MIC against bacteria, strain C (Enterobacter aerogenes): 100 µg/mL
- MIC against bacteria, strain D (Serratia marcencens): 100 µg/mL
- MIC against bacteria, strain E [1]: 100 µg/mL
- MIC against bacteria, strain F (Bacillus subtilis): 100 µg/mL
- Growth (destruction of a mixed culture of bacteria) [2, 6]: +
- Growth (destruction of a mixed culture of bacteria) [2, 7]: +
- Growth (destruction of a mixed culture of bacteria) [2, 8]: +
- Growth (destruction of a mixed culture of bacteria) [2, 9]: (+) (growth less than that of control (>10 colonies), slight destruction)
- Growth (destruction of a mixed culture of bacteria) [2, 10]: +
- Growth (destruction of a mixed culture of bacteria) [2, 11]: -
- Growth (destruction of a mixed culture of bacteria) [2, 12]: (+) (growth less than that of control (>10 colonies), slight destruction)
- Growth (destruction of a mixed culture of bacteria) [2, 13]: -
- Growth (destruction of a mixed culture of bacteria) [2, 14]: (+) (growth less than that of control (>10 colonies), slight destruction)
- Growth (destruction of a mixed culture of bacteria) [2, 15]: -
- MIC against fungi, strain K (Aspergillus niger): 2 µg/mL
- MIC against fungi, strain L (Aspergillus phoenicis): 5 µg/mL
- MIC against fungi, strain M (Penicillium funiculosum): 5 µg/mL
- MIC against fungi, strain N (Alternaria alternata): 2 µg/mL
- MIC against fungi, strain O [3]: 5 µg/mL
- MIC against fungi, strain P (Candida albicans): 5 µg/mL
- MIC against fungi, strain Q (Endomyces geotrichum): 5 µg/mL
- MIC against fungi, strain R (Aureobasidium pullulans): 2 µg/mL
- MIC against fungi, strain S (Chaetomium globosum): 2 µg/mL
- Growth on the agar (algae-destroying action) (Chlorella vulgaris): --
- Growth in the medium (growth inhibition) (Chlorella vulgaris): --
- Destruction, 5 mg/liter [4]: yes
- MIC [5]: 0.5 µg/mL
- Action against Artemia salina (Artemia salina; 0,5 mg/l, 6 hours): 1-3
- Action against Artemia salina (Artemia salina; 0,5 mg/l, 24 hours): 2-3
- Action against Artemia salina (Artemia salina; 0,5 mg/l, 48 hours): 3
- Action against Artemia salina (Artemia salina; 0,25 mg/l, 6 hours): 0-1
- Action against Artemia salina (Artemia salina; 0,25 mg/l, 24 hours): 2
- Action against Artemia salina (Artemia salina; 0,25 mg/l, 48 hours): 2
- Action against Artemia salina (Artemia salina; 1 mg/l, 6 hours): 2-3
- Action against Artemia salina (Artemia salina; 1 mg/l, 24 hours): 3
- Action against Artemia salina (Artemia salina; 1 mg/l, 48 hours): 3
- Action against Artemia salina (Artemia salina; 2,5 mg/l, 6 hours): 2-3
- Action against Artemia salina (Artemia salina; 2,5 mg/l, 24 hours): 3
- Action against Artemia salina (Artemia salina; 2,5 mg/l, 48 hours): 3

Structure (SMILES): CCCCCCCCCCCC[N+](CCO)(CCO)Cc1ccccc1.CCC[CH2][Sn-]([Cl])([Cl])([CH2]CCC)[CH2]CCC [Example 5, Dihydroxyethyl-benzyl-lauryl / Tributyldichloro]
- MIC against bacteria, strain A (Proteus vulgaris): 100 µg/mL
- MIC against bacteria, strain B (Pseudomonas aeruginosa): 100 µg/mL
- MIC against bacteria, strain C (Enterobacter aerogenes): 100 µg/mL
- MIC against bacteria, strain D (Serratia marcencens): 100 µg/mL
- MIC against bacteria, strain E [1]: 100 µg/mL
- MIC against bacteria, strain F (Bacillus subtilis): 100 µg/mL
- Growth (destruction of a mixed culture of bacteria) [2, 6]: +
- Growth (destruction of a mixed culture of bacteria) [2, 7]: +
- Growth (destruction of a mixed culture of bacteria) [2, 8]: +
- Growth (destruction of a mixed culture of bacteria) [2, 9]: +
- Growth (destruction of a mixed culture of bacteria) [2, 10]: +
- Growth (destruction of a mixed culture of bacteria) [2, 11]: +
- Growth (destruction of a mixed culture of bacteria) [2, 12]: +
- Growth (destruction of a mixed culture of bacteria) [2, 13]: +
- Growth (destruction of a mixed culture of bacteria) [2, 14]: +
- Growth (destruction of a mixed culture of bacteria) [2, 15]: (+) (growth less than that of control (>10 colonies), slight destruction)
- MIC against fungi, strain K (Aspergillus niger): 5 µg/mL
- MIC against fungi, strain L (Aspergillus phoenicis): 5 µg/mL
- MIC against fungi, strain M (Penicillium funiculosum): 5 µg/mL
- MIC against fungi, strain N (Alternaria alternata): 5 µg/mL
- MIC against fungi, strain O [3]: 2 µg/mL
- MIC against fungi, strain P (Candida albicans): 5 µg/mL
- MIC against fungi, strain Q (Endomyces geotrichum): 5 µg/mL
- MIC against fungi, strain R (Aureobasidium pullulans): 2 µg/mL
- MIC against fungi, strain S (Chaetomium globosum): 2 µg/mL
- Growth on the agar (algae-destroying action) (Chlorella vulgaris): --
- Growth in the medium (growth inhibition) (Chlorella vulgaris): --
- Destruction, 5 mg/liter [4]: yes
- MIC [5]: 0.5 µg/mL
- Action against Artemia salina (Artemia salina; 0,5 mg/l, 6 hours): 1-2
- Action against Artemia salina (Artemia salina; 0,5 mg/l, 24 hours): 2-3
- Action against Artemia salina (Artemia salina; 0,5 mg/l, 48 hours): 3
- Action against Artemia salina (Artemia salina; 0,25 mg/l, 6 hours): 0-1
- Action against Artemia salina (Artemia salina; 0,25 mg/l, 24 hours): 2
- Action against Artemia salina (Artemia salina; 0,25 mg/l, 48 hours): 2-3
- Action against Artemia salina (Artemia salina; 1 mg/l, 6 hours): 2
- Action against Artemia salina (Artemia salina; 1 mg/l, 24 hours): 3
- Action against Artemia salina (Artemia salina; 1 mg/l, 48 hours): 3
- Action against Artemia salina (Artemia salina; 2,5 mg/l, 6 hours): 2-3
- Action against Artemia salina (Artemia salina; 2,5 mg/l, 24 hours): 3
- Action against Artemia salina (Artemia salina; 2,5 mg/l, 48 hours): 3
